Assays:
[1] = test system: NCI-H1944; assay: Antiproliferative activity against SMARCA4-deficient human NCI-H1944 cells assessed as cell growth inhibition measured after 7 days by WST-8 assay; type: functional; conditions: NCI-H1944, 168 h, time 7 day
[2] = target: T1, von Hippel-Lindau disease tumor suppressor/SWI/SNF-related matrix-associated actin-dependent regulator of chromatin subfamily A member 2 (Homo sapiens, UniProt P51531+P40337); assay: PROTAC activity at VHL/C-terminal HiBiT fused SMARCA2 in human HeLa cells assessed as induction of SMARCA2 degradation by measuring maximal efficacy incubated for 24 hrs by Nano-Glo HiBiT analysis relative to control; type: cell-based
Target sequence in this assay (P40337 whole entry, looked up, the tested form may be a part): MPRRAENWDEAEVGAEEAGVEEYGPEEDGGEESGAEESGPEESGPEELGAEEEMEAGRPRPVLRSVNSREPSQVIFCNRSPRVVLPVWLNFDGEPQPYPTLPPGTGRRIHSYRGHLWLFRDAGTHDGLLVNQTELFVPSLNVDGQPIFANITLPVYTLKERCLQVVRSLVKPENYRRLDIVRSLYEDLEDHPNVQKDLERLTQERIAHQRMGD
Target sequence in this assay (P51531 whole entry, looked up, the tested form may be a part): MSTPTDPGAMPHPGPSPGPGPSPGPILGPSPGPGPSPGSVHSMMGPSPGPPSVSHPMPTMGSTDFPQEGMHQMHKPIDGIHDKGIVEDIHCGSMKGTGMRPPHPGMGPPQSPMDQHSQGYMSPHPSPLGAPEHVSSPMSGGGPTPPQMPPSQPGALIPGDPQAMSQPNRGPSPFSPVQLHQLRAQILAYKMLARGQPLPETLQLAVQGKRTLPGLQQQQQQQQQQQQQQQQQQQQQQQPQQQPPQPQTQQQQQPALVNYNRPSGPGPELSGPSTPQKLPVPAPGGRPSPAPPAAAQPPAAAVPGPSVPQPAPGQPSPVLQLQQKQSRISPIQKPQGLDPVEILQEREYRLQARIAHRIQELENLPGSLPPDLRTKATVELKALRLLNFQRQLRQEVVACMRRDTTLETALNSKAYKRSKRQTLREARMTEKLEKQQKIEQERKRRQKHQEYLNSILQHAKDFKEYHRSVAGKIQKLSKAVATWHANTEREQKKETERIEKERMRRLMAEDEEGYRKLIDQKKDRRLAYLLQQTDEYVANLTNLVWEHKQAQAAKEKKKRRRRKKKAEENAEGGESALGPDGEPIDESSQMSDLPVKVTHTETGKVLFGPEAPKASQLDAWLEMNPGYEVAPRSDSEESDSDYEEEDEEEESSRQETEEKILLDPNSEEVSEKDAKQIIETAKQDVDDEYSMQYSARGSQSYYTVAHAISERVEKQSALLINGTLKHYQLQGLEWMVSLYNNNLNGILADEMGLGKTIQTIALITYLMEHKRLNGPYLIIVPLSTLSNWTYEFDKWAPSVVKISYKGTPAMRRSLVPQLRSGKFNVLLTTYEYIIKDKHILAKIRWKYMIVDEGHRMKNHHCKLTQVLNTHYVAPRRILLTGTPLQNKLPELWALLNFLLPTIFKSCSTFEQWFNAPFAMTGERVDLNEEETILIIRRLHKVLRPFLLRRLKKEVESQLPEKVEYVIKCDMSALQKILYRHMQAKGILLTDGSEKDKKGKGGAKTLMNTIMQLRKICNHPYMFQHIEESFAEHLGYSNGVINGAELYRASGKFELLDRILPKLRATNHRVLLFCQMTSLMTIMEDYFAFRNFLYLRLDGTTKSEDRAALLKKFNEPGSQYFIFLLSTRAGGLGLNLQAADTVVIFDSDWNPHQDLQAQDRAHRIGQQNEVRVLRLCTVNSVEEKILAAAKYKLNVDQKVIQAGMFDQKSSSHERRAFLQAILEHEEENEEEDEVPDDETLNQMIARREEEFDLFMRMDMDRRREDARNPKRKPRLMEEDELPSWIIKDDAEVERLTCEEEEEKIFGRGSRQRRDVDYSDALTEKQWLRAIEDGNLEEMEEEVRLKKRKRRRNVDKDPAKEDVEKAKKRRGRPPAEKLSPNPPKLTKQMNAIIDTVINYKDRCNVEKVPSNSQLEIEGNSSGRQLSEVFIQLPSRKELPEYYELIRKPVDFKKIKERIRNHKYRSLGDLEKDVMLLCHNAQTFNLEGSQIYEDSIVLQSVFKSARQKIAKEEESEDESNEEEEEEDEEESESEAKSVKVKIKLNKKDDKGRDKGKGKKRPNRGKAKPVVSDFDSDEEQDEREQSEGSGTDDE

[3] = test system: SK-MEL-28; assay: Antiproliferative activity against human SK-MEL-28 cells expressing wild-type SMARCA2 assessed as cell growth inhibition by measuring maximal efficacy measured after 7 days by WST-8 assay relative to control; type: functional; conditions: time 7 day
[4] = target: T2, von Hippel-Lindau disease tumor suppressor/SWI/SNF-related matrix-associated actin-dependent regulator of chromatin subfamily A member 4 (Homo sapiens, UniProt P51532+P40337); assay: PROTAC activity at VHL/C-terminal HiBiT fused SMARCA4 in human HeLa cells assessed as induction of SMARCA4 degradation incubated for 24 hrs by Nano-Glo HiBiT analysis; type: cell-based
[5] = test system: NCI-H1975; assay: Antiproliferative activity against human NCI-H1975 cells expressing wild-type SMARCA2 assessed as cell growth inhibition by measuring maximal efficacy measured after 7 days by WST-8 assay relative to control; type: functional; conditions: time 7 day
[6] = target: T1, von Hippel-Lindau disease tumor suppressor/SWI/SNF-related matrix-associated actin-dependent regulator of chromatin subfamily A member 2; assay: PROTAC activity at VHL/C-terminal HiBiT fused SMARCA2 in human HeLa cells assessed as induction of SMARCA2 degradation at 0.000001 to 1 uM by Nano-Glo HiBiT analysis; type: cell-based; conditions: dose lower 1e-06 µM, dose upper 1.0 µM, time 6-48 hrs, TDE = time-dependent effect
Target sequence in this assay (P40337 whole entry, looked up, the tested form may be a part): as the sequence (P40337 whole entry, looked up, the tested form may be a part) above
Target sequence in this assay (P51531 whole entry, looked up, the tested form may be a part): as the sequence (P51531 whole entry, looked up, the tested form may be a part) above

[7] = test system: NCI-H1975; assay: Antiproliferative activity against human NCI-H1975 cells expressing wild-type SMARCA2 assessed as cell growth inhibition measured after 7 days by WST-8 assay; type: functional; conditions: NCI-H1975, 168 h, time 7 day
[8] = test system: SK-MEL-28; assay: Antiproliferative activity against human SK-MEL-28 cells expressing wild-type SMARCA2 assessed as cell growth inhibition measured after 7 days by WST-8 assay; type: functional; conditions: SK-MEL-28, 168 h, time 7 day
[9] = test system: SK-MEL-5; assay: Antiproliferative activity against SMARCA4-deficient human SK-MEL-5 cells assessed as cell growth inhibition measured after 7 days by WST-8 assay; type: functional; conditions: SK-MEL-5, 168 h, time 7 day
[10] = test system: A549; assay: Antiproliferative activity against SMARCA4-deficient human A549 cells assessed as cell growth inhibition measured after 7 days by WST-8 assay; type: functional; conditions: A549, 168 h, time 7 day
[11] = target: T2, von Hippel-Lindau disease tumor suppressor/SWI/SNF-related matrix-associated actin-dependent regulator of chromatin subfamily A member 4; assay: PROTAC activity at VHL/SMARCA4 in human RKO cells assessed as induction of […] degradation by measuring maximal efficacy incubated for 18 hrs by Western blotting analysis relative to control; type: cell-based
Target sequence in this assay (P40337 whole entry, looked up, the tested form may be a part): as the sequence (P40337 whole entry, looked up, the tested form may be a part) above
Target sequence in this assay (P51532 whole entry, looked up, the tested form may be a part): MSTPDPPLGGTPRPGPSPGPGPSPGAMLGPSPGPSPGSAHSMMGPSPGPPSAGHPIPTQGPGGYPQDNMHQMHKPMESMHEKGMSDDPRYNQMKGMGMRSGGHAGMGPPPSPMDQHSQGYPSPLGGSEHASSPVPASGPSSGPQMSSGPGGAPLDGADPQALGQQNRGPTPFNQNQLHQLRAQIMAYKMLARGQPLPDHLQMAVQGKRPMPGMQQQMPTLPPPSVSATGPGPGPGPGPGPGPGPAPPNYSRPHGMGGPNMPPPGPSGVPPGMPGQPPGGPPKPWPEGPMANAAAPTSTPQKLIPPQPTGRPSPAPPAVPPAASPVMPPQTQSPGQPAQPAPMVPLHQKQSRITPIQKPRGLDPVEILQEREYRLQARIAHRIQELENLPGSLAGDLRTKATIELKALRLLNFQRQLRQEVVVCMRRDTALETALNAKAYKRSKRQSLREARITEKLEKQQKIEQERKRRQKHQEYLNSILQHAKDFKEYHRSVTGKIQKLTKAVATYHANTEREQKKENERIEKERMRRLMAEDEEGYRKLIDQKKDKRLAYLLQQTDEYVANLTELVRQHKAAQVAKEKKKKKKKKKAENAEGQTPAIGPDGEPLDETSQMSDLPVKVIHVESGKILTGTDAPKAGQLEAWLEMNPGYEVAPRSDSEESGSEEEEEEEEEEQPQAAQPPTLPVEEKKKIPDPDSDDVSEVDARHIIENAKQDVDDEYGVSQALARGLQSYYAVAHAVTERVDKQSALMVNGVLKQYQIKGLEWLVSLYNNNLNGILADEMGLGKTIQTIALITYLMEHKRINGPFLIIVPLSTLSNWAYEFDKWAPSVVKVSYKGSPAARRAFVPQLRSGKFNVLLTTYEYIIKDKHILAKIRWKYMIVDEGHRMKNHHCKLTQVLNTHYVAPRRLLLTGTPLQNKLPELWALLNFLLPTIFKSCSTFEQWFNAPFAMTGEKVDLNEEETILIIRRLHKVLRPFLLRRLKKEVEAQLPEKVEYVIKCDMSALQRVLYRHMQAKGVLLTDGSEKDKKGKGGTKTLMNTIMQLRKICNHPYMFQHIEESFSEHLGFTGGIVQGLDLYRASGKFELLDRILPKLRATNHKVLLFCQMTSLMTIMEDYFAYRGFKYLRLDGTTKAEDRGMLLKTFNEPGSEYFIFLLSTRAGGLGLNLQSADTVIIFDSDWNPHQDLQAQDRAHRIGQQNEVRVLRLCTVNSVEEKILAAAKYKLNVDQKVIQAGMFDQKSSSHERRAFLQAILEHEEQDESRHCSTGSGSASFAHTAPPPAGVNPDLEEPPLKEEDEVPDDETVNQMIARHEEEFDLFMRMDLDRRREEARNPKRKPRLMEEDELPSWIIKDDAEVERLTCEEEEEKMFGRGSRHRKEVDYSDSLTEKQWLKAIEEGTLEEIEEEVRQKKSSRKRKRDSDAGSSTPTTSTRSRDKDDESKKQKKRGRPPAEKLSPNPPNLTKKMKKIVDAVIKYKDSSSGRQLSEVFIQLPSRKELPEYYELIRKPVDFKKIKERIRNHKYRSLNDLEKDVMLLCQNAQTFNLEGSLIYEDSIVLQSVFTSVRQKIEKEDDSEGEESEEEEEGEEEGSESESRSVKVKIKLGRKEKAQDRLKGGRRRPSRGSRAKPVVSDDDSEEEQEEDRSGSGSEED

[12] = target: T1, von Hippel-Lindau disease tumor suppressor/SWI/SNF-related matrix-associated actin-dependent regulator of chromatin subfamily A member 2; assay: PROTAC activity at VHL/SMARCA2 in human RKO cells assessed as induction of SMARCA2 degradation by measuring maximal efficacy incubated for 18 hrs by Western blotting analysis relative to control; type: cell-based
Target sequence in this assay (P40337 whole entry, looked up, the tested form may be a part): as the sequence (P40337 whole entry, looked up, the tested form may be a part) above
Target sequence in this assay (P51531 whole entry, looked up, the tested form may be a part): as the sequence (P51531 whole entry, looked up, the tested form may be a part) above

[13] = target: T2, von Hippel-Lindau disease tumor suppressor/SWI/SNF-related matrix-associated actin-dependent regulator of chromatin subfamily A member 4; assay: PROTAC activity at VHL/C-terminal HiBiT fused SMARCA4 in human HeLa cells assessed as induction of SMARCA4 degradation by measuring maximal efficacy incubated for 24 hrs by Nano-Glo HiBiT analysis relative to control; type: cell-based
Target sequence in this assay (P40337 whole entry, looked up, the tested form may be a part): as the sequence (P40337 whole entry, looked up, the tested form may be a part) above
Target sequence in this assay (P51532 whole entry, looked up, the tested form may be a part): as the sequence (P51532 whole entry, looked up, the tested form may be a part) above

[14] = Antiproliferative activity against SMARCA4-deficient human NCI-H1568 cells assessed as cell growth inhibition by measuring maximal efficacy measured after 7 days by WST-8 assay relative to control; type: functional; conditions: time 7 day
[15] = test system: NCI-H1792; assay: Antiproliferative activity against human NCI-H1792 cells expressing wild-type SMARCA2 assessed as cell growth inhibition by measuring maximal efficacy measured after 7 days by WST-8 assay relative to control; type: functional; conditions: time 7 day
[16] = target: T2, von Hippel-Lindau disease tumor suppressor/SWI/SNF-related matrix-associated actin-dependent regulator of chromatin subfamily A member 4; assay: PROTAC activity at VHL/C-terminal HiBiT fused SMARCA4 in human HeLa cells assessed as induction of SMARCA4 degradation incubated for 6 to 48 hrs by Nano-Glo HiBiT analysis; type: cell-based; conditions: dose lower 1e-05 µM, dose upper 1.0 µM, time 6-48 hrs
Target sequence in this assay (P40337 whole entry, looked up, the tested form may be a part): as the sequence (P40337 whole entry, looked up, the tested form may be a part) above
Target sequence in this assay (P51532 whole entry, looked up, the tested form may be a part): as the sequence (P51532 whole entry, looked up, the tested form may be a part) above

[17] = test system: NCI-H1793; assay: Antiproliferative activity against SMARCA4-deficient human NCI-H1793 cells assessed as cell growth inhibition measured after 7 days by WST-8 assay; type: functional; conditions: NCI-H1793, 168 h, time 7 day
[18] = test system: NCI-H647; assay: Antiproliferative activity against human NCI-H647 cells expressing wild-type SMARCA2 assessed as cell growth inhibition measured after 7 days by WST-8 assay; type: functional; conditions: NCI-H647, 168 h, time 7 day
[19] = target: T1, von Hippel-Lindau disease tumor suppressor/SWI/SNF-related matrix-associated actin-dependent regulator of chromatin subfamily A member 2; assay: PROTAC activity at VHL/C-terminal HiBiT fused SMARCA2 in human HeLa cells assessed as induction of SMARCA2 degradation incubated for 6 to 48 hrs by Nano-Glo HiBiT analysis; type: cell-based; conditions: dose lower 1e-06 µM, dose upper 1.0 µM, time 6-48 hrs
Target sequence in this assay (P40337 whole entry, looked up, the tested form may be a part): as the sequence (P40337 whole entry, looked up, the tested form may be a part) above
Target sequence in this assay (P51531 whole entry, looked up, the tested form may be a part): as the sequence (P51531 whole entry, looked up, the tested form may be a part) above

[20] = target: T2, von Hippel-Lindau disease tumor suppressor/SWI/SNF-related matrix-associated actin-dependent regulator of chromatin subfamily A member 4; assay: PROTAC activity at VHL/C-terminal HiBiT fused SMARCA4 in human HeLa cells assessed as induction of SMARCA4 degradation at 0.00001 to 1 uM by Nano-Glo HiBiT analysis; type: cell-based; conditions: dose lower 1e-05 µM, dose upper 1.0 µM, time 6-48 hrs, TDE = time-dependent effect
Target sequence in this assay (P40337 whole entry, looked up, the tested form may be a part): as the sequence (P40337 whole entry, looked up, the tested form may be a part) above
Target sequence in this assay (P51532 whole entry, looked up, the tested form may be a part): as the sequence (P51532 whole entry, looked up, the tested form may be a part) above

[21] = test system: NCI-H1693; assay: Antiproliferative activity against SMARCA4-deficient human NCI-H1693 cells assessed as cell growth inhibition measured after 7 days by WST-8 assay; type: functional; conditions: NCI-H1693, 168 h, time 7 day
[22] = test system: NCI-H1299; assay: Antiproliferative activity against SMARCA4-deficient human NCI-H1299 cells assessed as cell growth inhibition measured after 7 days by WST-8 assay; type: functional; conditions: NCI-H1299, 168 h, time 7 day
[23] = test system: NCI-H1693; assay: Antiproliferative activity against SMARCA4-deficient human NCI-H1693 cells assessed as cell growth inhibition by measuring maximal efficacy measured after 7 days by WST-8 assay relative to control; type: functional; conditions: time 7 day
[24] = test system: NCI-H1793; assay: Antiproliferative activity against SMARCA4-deficient human NCI-H1793 cells assessed as cell growth inhibition by measuring maximal efficacy measured after 7 days by WST-8 assay relative to control; type: functional; conditions: time 7 day
[25] = target: T2, von Hippel-Lindau disease tumor suppressor/SWI/SNF-related matrix-associated actin-dependent regulator of chromatin subfamily A member 4; assay: PROTAC activity at VHL/SMARCA4 in human RKO cells assessed as induction of […] degradation incubated for 18 hrs by Western blotting analysis; type: cell-based
[26] = target: T1, von Hippel-Lindau disease tumor suppressor/SWI/SNF-related matrix-associated actin-dependent regulator of chromatin subfamily A member 2; assay: PROTAC activity at VHL/SMARCA2 in human RKO cells assessed as induction of SMARCA2 degradation incubated for 18 hrs by Western blotting analysis; type: cell-based
[27] = test system: A549; assay: Antiproliferative activity against SMARCA4-deficient human A549 cells assessed as cell growth inhibition by measuring maximal efficacy measured after 7 days by WST-8 assay relative to control; type: functional; conditions: time 7 day
[28] = test system: SK-MEL-5; assay: Antiproliferative activity against SMARCA4-deficient human SK-MEL-5 cells assessed as cell growth inhibition by measuring maximal efficacy measured after 7 days by WST-8 assay relative to control; type: functional; conditions: time 7 day
[29] = test system: NCI-H1944; assay: Antiproliferative activity against SMARCA4-deficient human NCI-H1944 cells assessed as cell growth inhibition by measuring maximal efficacy measured after 7 days by WST-8 assay relative to control; type: functional; conditions: time 7 day
[30] = test system: NCI-H647; assay: Antiproliferative activity against human NCI-H647 cells expressing wild-type SMARCA2 assessed as cell growth inhibition by measuring maximal efficacy measured after 7 days by WST-8 assay relative to control; type: functional; conditions: time 7 day
[31] = test system: NCI-H838; assay: Antiproliferative activity against SMARCA4-deficient human NCI-H838 cells assessed as cell growth inhibition measured after 7 days by WST-8 assay; type: functional; conditions: NCI-H838, 168 h, time 7 day
[32] = test system: NCI-H838; assay: Antiproliferative activity against SMARCA4-deficient human NCI-H838 cells assessed as cell growth inhibition by measuring maximal efficacy measured after 7 days by WST-8 assay relative to control; type: functional; conditions: time 7 day
[33] = test system: NCI-H1792; assay: Antiproliferative activity against human NCI-H1792 cells expressing wild-type SMARCA2 assessed as cell growth inhibition measured after 7 days by WST-8 assay; type: functional; conditions: NCI-H1792, 168 h, time 7 day
[34] = Antiproliferative activity against SMARCA4-deficient human NCI-H1568 cells assessed as cell growth inhibition measured after 7 days by WST-8 assay; type: functional; conditions: NCI-H1568, 168 h, time 7 day
[35] = test system: NCI-H1299; assay: Antiproliferative activity against SMARCA4-deficient human NCI-H1299 cells assessed as cell growth inhibition by measuring maximal efficacy measured after 7 days by WST-8 assay relative to control; type: functional; conditions: time 7 day
[36] = target: T2, von Hippel-Lindau disease tumor suppressor/SWI/SNF-related matrix-associated actin-dependent regulator of chromatin subfamily A member 4; assay: PROTAC activity at VHL/SMARCA4 in human MV4-11 cells assessed as induction of […] degradation by measuring maximal efficacy incubated for 18 hrs by Western blotting analysis relative to control; type: cell-based
Target sequence in this assay (P40337 whole entry, looked up, the tested form may be a part): as the sequence (P40337 whole entry, looked up, the tested form may be a part) above
Target sequence in this assay (P51532 whole entry, looked up, the tested form may be a part): as the sequence (P51532 whole entry, looked up, the tested form may be a part) above

[37] = target: T1, von Hippel-Lindau disease tumor suppressor/SWI/SNF-related matrix-associated actin-dependent regulator of chromatin subfamily A member 2; assay: PROTAC activity at VHL/SMARCA2 in human MV4-11 cells assessed as induction of SMARCA2 degradation by measuring maximal efficacy incubated for 18 hrs by Western blotting analysis relative to control; type: cell-based
Target sequence in this assay (P40337 whole entry, looked up, the tested form may be a part): as the sequence (P40337 whole entry, looked up, the tested form may be a part) above
Target sequence in this assay (P51531 whole entry, looked up, the tested form may be a part): as the sequence (P51531 whole entry, looked up, the tested form may be a part) above

[38] = target: T1, von Hippel-Lindau disease tumor suppressor/SWI/SNF-related matrix-associated actin-dependent regulator of chromatin subfamily A member 2; assay: PROTAC activity at VHL/C-terminal HiBiT fused SMARCA2 in human HeLa cells assessed as induction of SMARCA2 degradation incubated for 24 hrs by Nano-Glo HiBiT analysis; type: cell-based

GI50 [1] [µM] | Emax [2] [%] | DC50 [4] [µM] | GI50 [7] [µM] | GI50 [8] [µM] | GI50 [9] [µM] | GI50 [10] [µM] | Emax [13] [%] | GI50 [17] [µM] | GI50 [18] [µM] | GI50 [21] [µM] | GI50 [22] [µM] | Structure (SMILES) | Imax [3] [%] | Imax [5] [%] | Imax [14] [%] | Imax [15] [%] | Imax [23] [%] | Imax [24] [%] | Imax [27] [%] | Imax [28] [%] | also measured
0.013 | 94 | 0.009 | 0.065 | > 10 | 0.0049 | 0.03 | 92 | 0.0073 | 0.165 | 0.0028 | 0.116 | Cc1ncsc1-c1ccc([C@H](CC[C@H](C)CCN2CCC(c3ccc4c(c3)n(C3CCCC3)c3nc(=O)c5c(Br)cccc5n43)CC2)NC(=O)[C@@H]2C[C@@H](O)CN2C(=O)[C@@H](NC(=O)C2(F)CC2)C(C)(C)C)cc1 | 50 | 63 | 90 | 65 | 86 | 68 | 56 | 96 | Activity [6]: Tde; Emax [11]: 67%; Emax [12]: 81%; Activity [16]: Dose-Dependent Effect; Activity [19]: Dose-Dependent Effect; Activity [20]: Tde; DC50 [25]: 0.032 µM; DC50 [26]: 0.001 µM; Imax [29]: 82%; Imax [30]: 80%; GI50 [31]: 0.067 µM; Imax [32]: 82%; GI50 [33]: 0.135 µM; GI50 [34]: 0.0028 µM; Imax [35]: 74%
– | – | – | – | – | – | – | – | – | – | – | – | Cc1ncsc1-c1ccc(CNC(=O)[C@@H]2C[C@@H](O)CN2C(=O)[C@@H](NC(=O)C2(F)CC2)C(C)(C)C)c(OCCOc2ccc(CN3CCN(c4cc(-c5ccccc5O)nnc4N)CC3)cc2)c1 | – | – | – | – | – | – | – | – | Emax [36]: > 95%; Emax [37]: > 95%
0.0048 | 93 | 0.008 | 0.038 | 0.032 | 0.0025 | 0.016 | 94 | 0.005 | 0.076 | 0.0033 | 0.1 | Cc1ncsc1-c1ccc([C@H](C)NC(=O)[C@@H]2C[C@@H](O)CN2C(=O)[C@@H](NC(=O)CCCCCCCCCn2cc(-c3cc(-c4ccccc4O)nnc3N)cn2)C(C)(C)C)cc1 | 90 | 63 | 82 | 86 | 81 | 72 | 53 | 95 | DC50 [38]: 0.002 µM; Imax [29]: 87%; Imax [30]: 77%; GI50 [31]: 0.048 µM; Imax [32]: 91%; GI50 [33]: 0.06 µM; GI50 [34]: 0.0025 µM; Imax [35]: 81%

Source: ChEMBL document CHEMBL5325488, “Discovery of SMD-3040 as a Potent and Selective SMARCA2 PROTAC Degrader with Strong in vivo Antitumor Activity” (J Med Chem, 2023)
